Measurements from ChEMBL document CHEMBL4673280, “Discovery and SAR studies of 2-alkyl-3-phenyl-2,4,5,6,7,8-hexahydropyrazolo[3,4-d]azepines as 5-HT inhibitors leading to the identification of a clinical candidate” (Bioorg Med Chem Lett, 2021).
pKi: −log10 of the molar value.

What was measured:
[1] = target: T1, Adrenergic receptor alpha-1 (Rattus norvegicus, UniProt P15823+P23944+P43140); assay: Displacement of […] from alpha1 adrenergic receptor in rat cortex membrane incubated for 60 mins by competitive radioligand binding assay; type: cell membranes
T1 sequence (P15823 whole entry): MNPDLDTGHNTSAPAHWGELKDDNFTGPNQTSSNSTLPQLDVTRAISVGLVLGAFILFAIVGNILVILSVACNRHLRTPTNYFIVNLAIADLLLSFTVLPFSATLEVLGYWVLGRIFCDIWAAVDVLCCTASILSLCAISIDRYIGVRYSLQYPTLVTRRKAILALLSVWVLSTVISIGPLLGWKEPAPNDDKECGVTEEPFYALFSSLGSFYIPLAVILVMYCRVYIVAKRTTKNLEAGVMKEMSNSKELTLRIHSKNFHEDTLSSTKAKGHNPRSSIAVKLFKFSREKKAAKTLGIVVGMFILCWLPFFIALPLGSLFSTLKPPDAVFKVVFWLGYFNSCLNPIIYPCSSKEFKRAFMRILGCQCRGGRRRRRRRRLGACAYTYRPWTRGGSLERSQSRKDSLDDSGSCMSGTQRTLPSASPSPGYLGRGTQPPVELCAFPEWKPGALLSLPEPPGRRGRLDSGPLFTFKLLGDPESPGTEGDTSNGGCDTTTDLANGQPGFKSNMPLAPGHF
T1 sequence (P23944 whole entry): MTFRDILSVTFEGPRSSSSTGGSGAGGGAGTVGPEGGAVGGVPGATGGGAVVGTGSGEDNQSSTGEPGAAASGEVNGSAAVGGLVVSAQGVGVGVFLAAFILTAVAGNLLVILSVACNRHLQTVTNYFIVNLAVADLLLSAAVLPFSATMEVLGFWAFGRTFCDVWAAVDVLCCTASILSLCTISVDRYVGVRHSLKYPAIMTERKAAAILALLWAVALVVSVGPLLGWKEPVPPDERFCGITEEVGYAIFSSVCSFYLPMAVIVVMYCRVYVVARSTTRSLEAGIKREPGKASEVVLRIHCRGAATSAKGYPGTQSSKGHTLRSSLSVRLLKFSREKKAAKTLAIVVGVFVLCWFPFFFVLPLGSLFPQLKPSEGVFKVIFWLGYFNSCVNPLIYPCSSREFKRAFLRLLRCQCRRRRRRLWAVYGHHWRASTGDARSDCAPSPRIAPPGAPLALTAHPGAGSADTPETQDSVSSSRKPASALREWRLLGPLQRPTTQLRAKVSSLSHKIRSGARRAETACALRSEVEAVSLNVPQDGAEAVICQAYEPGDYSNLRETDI
T1 sequence (P43140 whole entry): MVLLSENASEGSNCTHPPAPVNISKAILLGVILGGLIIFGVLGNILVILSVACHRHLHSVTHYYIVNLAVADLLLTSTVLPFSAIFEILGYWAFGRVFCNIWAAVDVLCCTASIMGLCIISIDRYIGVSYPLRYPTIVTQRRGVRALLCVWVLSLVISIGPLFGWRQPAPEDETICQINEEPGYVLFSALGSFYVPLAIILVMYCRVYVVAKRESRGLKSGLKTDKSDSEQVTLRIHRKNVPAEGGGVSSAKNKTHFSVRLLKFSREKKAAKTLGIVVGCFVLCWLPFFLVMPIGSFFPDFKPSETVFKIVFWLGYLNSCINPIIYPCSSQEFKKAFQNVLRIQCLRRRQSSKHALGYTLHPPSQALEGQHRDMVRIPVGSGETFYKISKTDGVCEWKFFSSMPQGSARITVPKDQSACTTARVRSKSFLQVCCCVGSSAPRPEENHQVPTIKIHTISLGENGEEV

[2] = target: 5-hydroxytryptamine receptor 2B (Homo sapiens, UniProt P41595); assay: Displacement of [3H]-ketanserin from human 5-HT2B receptor by competitive radioligand binding assay
Chain of 5-hydroxytryptamine receptor 2B (P41595 whole entry): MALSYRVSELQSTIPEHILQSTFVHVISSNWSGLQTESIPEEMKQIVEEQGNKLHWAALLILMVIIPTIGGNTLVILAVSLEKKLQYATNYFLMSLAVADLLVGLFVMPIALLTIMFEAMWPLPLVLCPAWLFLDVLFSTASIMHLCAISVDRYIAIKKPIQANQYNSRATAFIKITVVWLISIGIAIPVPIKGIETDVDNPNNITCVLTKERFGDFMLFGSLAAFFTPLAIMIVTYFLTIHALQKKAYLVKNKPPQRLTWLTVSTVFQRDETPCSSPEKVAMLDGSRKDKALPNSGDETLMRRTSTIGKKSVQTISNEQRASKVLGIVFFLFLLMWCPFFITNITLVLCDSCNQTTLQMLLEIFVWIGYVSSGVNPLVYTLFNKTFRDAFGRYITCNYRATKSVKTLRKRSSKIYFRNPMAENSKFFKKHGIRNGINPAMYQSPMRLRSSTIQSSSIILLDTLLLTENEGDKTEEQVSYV

[3] = target: 5-hydroxytryptamine receptor 2A (Homo sapiens, UniProt P28223); assay: Displacement of [3H]-ketanserin from human 5-HT2A receptor by competitive radioligand binding assay
Chain of 5-hydroxytryptamine receptor 2A (P28223 whole entry): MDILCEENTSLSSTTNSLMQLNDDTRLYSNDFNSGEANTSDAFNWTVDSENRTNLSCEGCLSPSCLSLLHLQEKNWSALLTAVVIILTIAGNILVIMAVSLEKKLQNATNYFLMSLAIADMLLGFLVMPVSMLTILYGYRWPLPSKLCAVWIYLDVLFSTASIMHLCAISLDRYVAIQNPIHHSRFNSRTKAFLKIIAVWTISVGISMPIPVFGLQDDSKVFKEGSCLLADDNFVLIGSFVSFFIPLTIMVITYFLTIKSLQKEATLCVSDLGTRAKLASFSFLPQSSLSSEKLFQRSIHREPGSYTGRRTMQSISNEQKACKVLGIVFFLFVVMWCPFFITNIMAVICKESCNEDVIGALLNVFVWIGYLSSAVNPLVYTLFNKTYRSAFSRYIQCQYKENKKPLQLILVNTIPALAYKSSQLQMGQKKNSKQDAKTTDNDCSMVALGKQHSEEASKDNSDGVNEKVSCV

[4] = target: T2, 5-hydroxytryptamine receptor 2C (Homo sapiens, UniProt P28335); assay: Displacement of [3H]-ketanserin from human 5-HT2C receptor by competitive radioligand binding assay
T2 sequence (P28335 whole entry): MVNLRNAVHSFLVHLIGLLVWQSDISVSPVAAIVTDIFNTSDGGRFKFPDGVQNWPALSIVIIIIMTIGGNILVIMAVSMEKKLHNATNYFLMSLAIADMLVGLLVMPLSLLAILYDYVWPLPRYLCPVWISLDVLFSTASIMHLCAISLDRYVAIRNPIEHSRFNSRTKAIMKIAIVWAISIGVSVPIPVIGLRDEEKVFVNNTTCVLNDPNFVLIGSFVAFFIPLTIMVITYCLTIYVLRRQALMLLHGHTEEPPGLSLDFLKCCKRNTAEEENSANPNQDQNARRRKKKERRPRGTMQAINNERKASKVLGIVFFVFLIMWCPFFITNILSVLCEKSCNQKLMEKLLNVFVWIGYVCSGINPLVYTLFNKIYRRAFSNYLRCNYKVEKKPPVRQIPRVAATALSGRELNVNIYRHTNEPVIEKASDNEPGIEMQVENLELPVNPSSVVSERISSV

[5] = target: 5-hydroxytryptamine receptor 7 (Rattus norvegicus, UniProt P32305); assay: Displacement of [3H]-CT from rat 5-HT7 receptor expressed in HEK293 cells by competitive radioligand binding assay; type: cell-based
Chain of 5-hydroxytryptamine receptor 7 (P32305 whole entry): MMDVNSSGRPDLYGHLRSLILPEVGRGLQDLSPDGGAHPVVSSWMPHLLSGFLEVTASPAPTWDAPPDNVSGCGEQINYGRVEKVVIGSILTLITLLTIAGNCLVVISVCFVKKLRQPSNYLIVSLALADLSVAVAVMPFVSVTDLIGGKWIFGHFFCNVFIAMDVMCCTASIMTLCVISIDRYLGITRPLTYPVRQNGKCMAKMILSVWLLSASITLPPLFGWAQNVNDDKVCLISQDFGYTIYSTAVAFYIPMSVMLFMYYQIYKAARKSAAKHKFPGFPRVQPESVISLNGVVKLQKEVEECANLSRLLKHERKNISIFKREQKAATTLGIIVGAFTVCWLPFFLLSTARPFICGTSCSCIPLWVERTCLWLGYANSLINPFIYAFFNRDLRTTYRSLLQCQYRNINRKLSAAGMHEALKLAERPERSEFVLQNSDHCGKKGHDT

Compound	Ki [1] [nM]	pKi [2]	pKi [3]	pKi [4]	pKi [5]
c1ccc(-c2c3c(nn2C2CCC2)CCNCC3)cc1	500	8.52	8.52	–	–
Fc1ccc(-c2c3c(nn2C2CCC2)CCNCC3)cc1	220	8.40	9.00	7.35	–
CC(C)n1nc2c(c1-c1ccc(Cl)c(Cl)c1)CCNCC2	–	7.51	7.41	6.04	5.40
CC(C)n1nc2c(c1-c1ccc(Cl)cc1Cl)CCNCC2	–	7.37	7.82	6.66	6.40
COc1ccc(-c2c3c(nn2C(C)C)CCNCC3)cc1	–	9.00	8.52	–	7.74
